Where a name gives a salt, the structure may show the parent alone.
Each molecule was assayed against T1, haematopoietic prostaglandin D synthase (H-PGDS) (Homo sapiens, UniProt O60760) (assay: H-PGDS RapidFire high throughput mass spectrometry assay (conversion of PGH2 to PGD2)). Settings: 10 nM H-PGDS, PGH2 formed in situ by COX-2 from arachidonic acid; read-out: Potency Range (mean pIC50) (converted).
T1 construct: Full length human H-PGDS cDNA (Invitrogen Ultimate ORF 10H13026) was amplified by PCR; 6-His (N); TEV protease cleavage site (N); made in house; host or cells: E. coli BL21 (DE3*), vector pET22b+
Type: biochemical
Outline: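 PGH2 substrate generated in situ by COX-2 (full-length human, FLAG-tagged, Sf9-expressed) from arachidonic acid at ˜10 μM, then converted by full-length human His-tagged H-PGDS (E. coli-expressed). RapidFire SPE–triple quadrupole MS measured PGD2 against PGF2α as substrate surrogate to give percent conversion.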

T1 sequence (O60760 whole entry): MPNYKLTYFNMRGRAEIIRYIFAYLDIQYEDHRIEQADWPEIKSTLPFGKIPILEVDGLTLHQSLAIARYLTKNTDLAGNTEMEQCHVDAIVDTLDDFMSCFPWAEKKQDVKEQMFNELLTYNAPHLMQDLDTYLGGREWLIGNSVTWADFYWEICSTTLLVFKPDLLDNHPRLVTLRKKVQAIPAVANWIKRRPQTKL

| Compound | IC50 [nM] |
| --- | --- |
| O=C(NC1CCN(c2ccccn2)C1)N1CC(Oc2cccc3scnc23)C1 (racemic) [Example 87, Racemic 3-(Benzo[d]thiazol-4-yloxy)-N-(1-(pyridin-2-yl)pyrrolidin-3-yl)azetidine-1-carboxamide] | 100 to 1000 |
| CC1(NC(=O)N2CC(Oc3cccc4scnc34)C2)CN(c2ncccn2)C1 [Example 251] | 100 to 1000 |
| COc1ccc(Cl)cc1O[C@H]1C[C@H](C(=O)N[C@H]2CC[C@H](C(C)(C)O)CC2)C1 [Example 275, (trans)-3-(5-Chloro-2-methoxyphenoxy)-N-((trans)-4-(2-hydroxypropan-2-yl)cyclohexyl)cyclobutanecarboxamide] | 10 to 79.4 |
| O=C(NC1CN(c2ccnc(Cl)n2)C1)N1CC(Oc2cc(F)cc3scnc23)C1 [Example 130, N-(1-(2-Chloropyrimidin-4-yl)azetidin-3-yl)-3-((6-fluorobenzo[d]thiazol-4-yl)oxy)azetidine-1-carboxamide] | 10 to 79.4 |
| CC(C)(O)[C@H]1CC[C@H](NC(=O)[C@H]2C[C@H](Oc3cccc4cncnc34)C2)CC1 [Example 296, (trans)-N-((trans)-4-(2-Hydroxypropan-2-yl)cyclohexyl)-3-(quinazolin-8-yloxy)cyclobutanecarboxamide] | 100 to 1000 |
| C[C@]1(O)CC[C@H](NC(=O)N2CC(Oc3cccc4scnc34)C2)CC1 [Example 105, 3-(Benzo[d]thiazol-4-yloxy)-N-((trans)-4-hydroxy-4-methylcyclohexyl)azetidine-1-carboxamide] | 100 to 1000 |
| N#Cc1cnc(NC(=O)[C@H]2C[C@H](Oc3cccc4ccoc34)C2)s1 [Example 261, (trans)-3-(Benzofuran-7-yloxy)-N-(5-cyanothiazol-2-yl)cyclobutanecarboxamide] | 10 to 79.4 |
| O=C(Nc1nccs1)[C@H]1C[C@H](Oc2cccc3cc(F)cnc23)C1 [Example 281, (trans)-3-((3-Fluoroquinolin-8-yl)oxy)-N-(thiazol-2-yl)cyclobutanecarboxamide] | 10 to 79.4 |
| O=C(Nc1nnc(C2CC2)s1)N1CC(Oc2cccc3scnc23)C1 [Example 333, 3-(Benzo[d]thiazol-4-yloxy)-N-(5-cyclopropyl-1,3,4-thiadiazol-2-yl)azetidine-1-carboxamide] | < 10 |
| O=C(N[C@H]1CC[C@H](N2CC(F)(F)C2)CC1)N1CC(Oc2cccc3scnc23)C1 [Example 57, 3-(Benzo[d]thiazol-4-yloxy)-N-((trans)-4-(3,3-difluoroazetidin-1-yl)cyclohexyl)azetidine-1-carboxamide] | 100 to 1000 |
| CC(C)(O)[C@H]1CC[C@H](NC(=O)[C@H]2C[C@H](Oc3cccc4c3OCC4)C2)CC1 [Example 268, (trans)-3-((2,3-Dihydrobenzofuran-7-yl)oxy)-N-((trans)-4-(2-hydroxypropan-2-yl)cyclohexyl)cyclobutanecarboxamide] | 10 to 79.4 |
| Cc1coc2c(O[C@H]3C[C@H](C(=O)N[C@H]4CC[C@H](C(C)(C)O)CC4)C3)cccc12 [Example 270, (trans)-N-((trans)-4-(2-Hydroxypropan-2-yl)cyclohexyl)-3-((3-methylbenzofuran-7-yl)oxy)cyclobutanecarboxamide] | 100 to 1000 |
| COc1ccc(F)cc1O[C@H]1C[C@H](C(=O)N[C@H]2CC[C@H](NC(C)C(F)(F)F)CC2)C1 (mixture of isomers) [Example 161, Racemic (trans)-3-(5-Fluoro-2-methoxyphenoxy)-N-((trans)-4-((1,1,1-trifluoropropan-2-yl)amino)cyclohexyl)cyclobutanecarboxamide] | 10 to 79.4 |
| CCOCc1nc(NC(=O)[C@H]2C[C@H](Oc3cc(F)cc4scnc34)C2)n[nH]1 [Example 335] | 10 to 79.4 |
| CC(C)(O)[C@H]1CC[C@H](NC(=O)N2CC(Oc3csc4cccnc34)C2)CC1 [Example 226, N-((trans)-4-(2-Hydroxypropan-2-yl)cyclohexyl)-3-(thieno[3,2-b]pyridin-3-yloxy)azetidine-1-carboxamide] | 10 to 79.4 |
| COC(=O)N1CCCC(NC(=O)N2CC(Oc3cccc4scnc34)C2)C1 (racemic) [Example 93, Racemic Methyl 3-(3-(benzo[d]thiazol-4-yloxy)azetidine-1-carboxamido)piperidine-1-carboxylate] | 100 to 1000 |
| O=C1CC(NC(=O)[C@H]2C[C@H](Oc3cccc4scnc34)C2)c2ccccc2N1 (mixture of isomers) [Example 84, Racemic (trans)-3-(Benzo[d]thiazol-4-yloxy)-N-(2-oxo-1,2,3,4-tetrahydroquinolin-4-yl)cyclobutanecarboxamide] | 10 to 79.4 |
| CC(C)(O)[C@@H]1CC[C@@H](NC(=O)N2CC(Oc3cc(F)cc4scnc34)C2)CO1 (racemic) [Example 127, Racemic 3-((6-Fluorobenzo[d]thiazol-4-yl)oxy)-N-((trans)-6-(2-hydroxypropan-2-yl)tetrahydro-2H-pyran-3-yl)azetidine-1-carboxamide] | 10 to 79.4 |

| Compound | IC50 [nM] |
| --- | --- |
| CC(C)(O)c1csc(NC(=O)N2CC(Oc3cccc4scnc34)C2)n1 [Example 56, 3-(Benzo[d]thiazol-4-yloxy)-N-(4-(2-hydroxypropan-2-yl)thiazol-2-yl)azetidine-1-carboxamide] | 100 to 1000 |
| COc1ccc(F)cc1O[C@H]1C[C@H](C(=O)Nc2ncc(C(C)=O)s2)C1 [Example 164, (trans)-N-(5-Acetylthiazol-2-yl)-3-(5-fluoro-2-methoxyphenoxy)cyclobutanecarboxamide] | < 10 |
| O=C(Nc1nncs1)[C@H]1C[C@H](Oc2cccc3cccnc23)C1 [Example 216, (trans)-3-(Quinolin-8-yloxy)-N-(1,3,4-thiadiazol-2-yl)cyclobutanecarboxamide] | 10 to 79.4 |
| N#Cc1csc(NC(=O)[C@H]2C[C@H](Oc3cccc4cccnc34)C2)n1 [Example 188, (trans)-N-(4-Cyanothiazol-2-yl)-3-(quinolin-8-yloxy)cyclobutanecarboxamide, trifluoroacetic acid salt] | < 10 |
| CC(C)(O)C1CC2(CC(NC(=O)[C@H]3C[C@H](Oc4cccc5scnc45)C3)C2)C1 (mixture of isomers) [Example 83, Racemic (trans)-3-(Benzo[d]thiazol-4-yloxy)-N-(6-(2-hydroxypropan-2-yl)spiro[3.3]heptan-2-yl)cyclobutanecarboxamide] | 10 to 79.4 |
| COc1cc(F)ccc1O[C@H]1C[C@H](C(=O)Nc2nc(C(C)=O)cs2)C1 [Example 276, (trans)-N-(4-Acetylthiazol-2-yl)-3-(4-fluoro-2-methoxyphenoxy)cyclobutanecarboxamide] | 10 to 79.4 |
| CC(C(F)F)N1CCC(NC(=O)[C@H]2C[C@H](Oc3cc(F)ccc3OC(F)F)C2)CC1 (mixture of isomers) [Example 21, Racemic (trans)-3-(2-(Difluoromethoxy)-5-fluorophenoxy)-N-(1-(1,1-difluoropropan-2-yl)piperidin-4-yl)cyclobutanecarboxamide] | 10 to 79.4 |
| CC(C)(O)[C@H]1CC[C@H](NC(=S)N2CC(Oc3cccc4scnc34)C2)CC1 [Example 95, 3-(Benzo[d]thiazol-4-yloxy)-N-((trans)-4-(2-hydroxypropan-2-yl)cyclohexyl) azetidine-1-carbothioamide] | 10 to 79.4 |
| Cc1nnc(NC(=O)N2CC(Oc3cccc4scnc34)C2)s1 [Example 321, 3-(Benzo[d]thiazol-4-yloxy)-N-(5-methyl-1,3,4-thiadiazol-2-yl)azetidine-1-carboxamide] | 10 to 79.4 |
| O=C(NC1CN(c2cnccn2)C1)[C@H]1C[C@H](Oc2cc(F)cc3scnc23)C1 [Example 235, (trans)-3-((6-Fluorobenzo[d]thiazol-4-yl)oxy)-N-(1-(pyrazin-2-yl)azetidin-3-yl)cyclobutanecarboxamide] | 10 to 79.4 |
| CC(C)(O)c1cnc(NC(=O)[C@H]2C[C@H](Oc3cccc4cccnc34)C2)s1 [Example 204, (trans)-N-(5-(2-Hydroxypropan-2-yl)thiazol-2-yl)-3-(quinolin-8-yloxy)cyclobutanecarboxamide] | 10 to 79.4 |
| CC(C)(O)[C@H]1CC[C@H](NC(=O)[C@H]2C[C@H](Oc3ccc(F)c4cccnc34)C2)CC1 [Example 292, (trans)-3-((5-Fluoroquinolin-8-yl)oxy)-N-((trans)-4-(2-hydroxypropan-2-yl)cyclohexyl)cyclobutanecarboxamide] | 100 to 1000 |
| O=C(NC1CN(c2ncc(CO)cn2)C1)[C@H]1C[C@H](Oc2cc(F)cc3scnc23)C1 [Example 114, (trans)-3-((6-Fluorobenzo[d]thiazol-4-yl)oxy)-N-(1-(5-(hydroxymethyl)pyrimidin-2-yl)azetidin-3-yl)cyclobutanecarboxamide] | 10 to 79.4 |
| Cc1nccc(N2CC(NC(=O)[C@H]3C[C@H](Oc4cc(F)cc5scnc45)C3)C2)n1 [Example 123, (trans)-3-((6-Fluorobenzo[d]thiazol-4-yl)oxy)-N-(1-(2-methylpyrimidin-4-yl)azetidin-3-yl)cyclobutanecarboxamide] | 10 to 79.4 |
| O=C(N[C@H]1CC[C@H](N2CCCS2(=O)=O)CC1)N1CC(Oc2cccc3scnc23)C1 [Example 101, 3-(Benzo[d]thiazol-4-yloxy)-N-((trans)-4-(1,1-dioxidoisothiazolidin-2-yl)cyclohexyl)azetidine-1-carboxamide] | 10 to 79.4 |
| CC(C)(O)[C@H]1CC[C@H](NC(=O)[C@H]2C[C@H](Oc3ccccc3Cl)C2)CC1 [Example 282, (trans)-3-(2-Chlorophenoxy)-N-((trans)-4-(2-hydroxypropan-2-yl)cyclohexyl)cyclobutanecarboxamide] | 100 to 1000 |
| O=C(NC1CN(c2ncccn2)C1)[C@H]1C[C@H](Oc2cc(F)ccc2OC(F)F)C1 [Example 17, (trans)-3-(2-(Difluoromethoxy)-5-fluorophenoxy)-N-(1-(pyrimidin-2-yl)azetidin-3-yl)cyclobutanecarboxamide] | 10 to 79.4 |

Reference: US11053234B2 (GlaxoSmithKline Intellectual Property Development Limited, priority 2016, dated 2021)
